Some test systems named below: BT-549; CCRF-CEM; HCT-15; HOP-62; MCF7; MDA-N; MOLT-4; Malme-3M; NCI-H226; NCI-H23; NCI-H460; NCI/ADR-RES; PC-3; SF-539; SK-MEL-2; UACC-62; SK-MEL-5; RXF 393; Hs-578T.
Common to all, as to experiment: NCI anticancer screen, dose series, 48 h

Structures are written as SMILES.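 Cells were grown in 96-well plates and exposed to each compound for 48 hours at five concentrations; endpoints were interpolated linearly between bracketing concentrations, or set to the highest concentration if not reached. The concentration for 50% growth inhibition is given as GI50.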 Activity calls are given as the source filed them. Cut-off read from the data, not from the text of the source: active = GI50 up to about 1.1 µM and inactive = higher.

Take `Cc1cccc(N/C(Sc2ccccc2)=C(/C(Cl)=C(Cl)Cl)[N+](=O)[O-])c1`: the GI50 with BT-549 was 20.4 µM (inactive); in the experiment with CCRF-CEM, 27 µM (inactive); in the experiment with HCT-15, 15.3 µM; with HOP-62 it was 20.3 µM (inactive); in the experiment with MCF7, 29.3 µM (inactive); in the experiment on MDA-N, 19.4 µM (inactive). Further, the GI50 was 21.5 µM (inactive) in the experiment with MOLT-4; 16.5 µM (inactive) in the experiment with Malme-3M; 16.6 µM (inactive) in the experiment with NCI-H226; 20.1 µM (inactive) in the experiment on NCI-H23; 35 µM (inactive) in the experiment on NCI-H460; 15.8 µM (inactive) with NCI/ADR-RES. Moreover, the GI50 in the experiment with PC-3 is 27 µM (inactive); with SF-539 it was 16.4 µM (inactive); in the experiment with SK-MEL-2, 28.1 µM (inactive); with UACC-62 it was 20.3 µM (inactive).

With `CC(=O)OC1COC(n2c(N)c(C#N)c(C)c(C#N)c2=S)C(OC(C)=O)C1OC(C)=O` (stereo not drawn), the GI50 was > 100 µM (inactive) in the experiment with BT-549; > 100 µM in the experiment on HCT-15; > 100 µM (inactive) in the experiment on HOP-62; 88.1 µM (inactive) with MCF7; > 100 µM (inactive) with MDA-N; > 100 µM (inactive) with Malme-3M. Moreover, the GI50 with NCI-H226 was > 100 µM (inactive); in the experiment with NCI-H23, > 100 µM (inactive); in the experiment on NCI-H460, > 100 µM (inactive); in the experiment on NCI/ADR-RES it was > 100 µM (inactive); in the experiment with PC-3, 76.7 µM (inactive); with SF-539, > 100 µM (inactive). The GI50 with SK-MEL-5 was > 100 µM (inactive); in the experiment with UACC-62, 66.4 µM (inactive).

In the case of `FC1CCN(C2(c3cccs3)CCCCC2)CC1`, the GI50 is > 100 µM (inactive) in the experiment with BT-549; > 100 µM with HCT-15; > 100 µM (inactive) with HOP-62; > 100 µM (inactive) in the experiment on MCF7; > 100 µM (inactive) with MDA-N; > 100 µM (inactive) in the experiment with MOLT-4. Further, the GI50 in the experiment on Malme-3M was 25.5 µM (inactive); in the experiment on NCI-H226, > 100 µM (inactive); with NCI-H23, > 100 µM (inactive); in the experiment with NCI-H460, > 100 µM (inactive); in the experiment with NCI/ADR-RES it was > 100 µM (inactive); in the experiment with PC-3 it was > 100 µM (inactive). Also, the GI50 with RXF 393, in the experiment on SK-MEL-2, with SK-MEL-5 and in the experiment with UACC-62 was > 100 µM (inactive) in each case.

For `NC1CC(=O)c2cscc21` (stereo not drawn), the GI50 was 58.9 µM (inactive) in the experiment on BT-549; 16.3 µM (inactive) in the experiment with CCRF-CEM; 25.4 µM in the experiment with HCT-15; > 100 µM (inactive) in the experiment with HOP-62; > 100 µM (inactive) in the experiment with MDA-N; 20.6 µM (inactive) in the experiment on MOLT-4. Also, the GI50 with NCI-H23 is > 100 µM (inactive); with NCI-H460, > 100 µM (inactive); in the experiment on NCI/ADR-RES, > 100 µM (inactive); in the experiment with PC-3, 52.7 µM (inactive); in the experiment with RXF 393 it was > 100 µM (inactive); with SF-539, 37 µM (inactive). Moreover, the GI50 in the experiment with SK-MEL-2 and with SK-MEL-5 was > 100 µM (inactive) throughout.

For the compound `CCC(=O)C1(N2CCOCC2)CCN(CCCC(=O)c2ccc(F)cc2)CC1`, the GI50 in the experiment with CCRF-CEM is > 100 µM (inactive); in the experiment on HCT-15, > 100 µM; in the experiment with HOP-62 it was > 100 µM (inactive); with Hs-578T, > 100 µM (inactive); in the experiment with MCF7, > 100 µM (inactive); in the experiment with MDA-N, > 100 µM (inactive). The GI50 with MOLT-4, in the experiment on Malme-3M, with NCI-H226, in the experiment on NCI-H23, in the experiment on NCI-H460 and in the experiment with NCI/ADR-RES was > 100 µM (inactive) each time. For the same compound, the GI50 with PC-3, with RXF 393, in the experiment with SF-539, in the experiment with SK-MEL-2, in the experiment on SK-MEL-5 and with UACC-62 was > 100 µM (inactive) in each case.

Consider `CC(C)CC(NC(=O)C(CCI)Cc1ccccc1)C(=O)Nc1ccccc1` (stereo not drawn), for which the GI50 was 10.8 µM (inactive) with BT-549; 30.1 µM (inactive) in the experiment with CCRF-CEM; 49.9 µM in the experiment on HCT-15; 39.7 µM (inactive) in the experiment with MCF7; > 100 µM (inactive) in the experiment on MDA-N; 26.7 µM (inactive) in the experiment on MOLT-4. The GI50 with Malme-3M was > 100 µM (inactive); in the experiment with NCI-H226, 58.6 µM (inactive); in the experiment on NCI-H23, 49 µM (inactive); in the experiment with NCI-H460, 80.2 µM (inactive); with NCI/ADR-RES, 19 µM (inactive); in the experiment on PC-3, 51.1 µM (inactive). Also, the GI50 was > 100 µM (inactive) in the experiment on RXF 393; > 100 µM (inactive) in the experiment with SF-539; > 100 µM (inactive) in the experiment on SK-MEL-2; 55.3 µM (inactive) in the experiment with SK-MEL-5; > 100 µM (inactive) in the experiment with UACC-62.

In the case of `N#CC(O)CCOCc1ccccc1` (stereo not drawn), the GI50 in the experiment on BT-549 is > 100 µM (inactive); in the experiment with CCRF-CEM, 35.4 µM (inactive); in the experiment on HCT-15, 52.4 µM; with HOP-62 it was > 100 µM (inactive); with MCF7, 41.6 µM (inactive); with MDA-N, 86.7 µM (inactive). The GI50 in the experiment on MOLT-4 was 3.39 µM (inactive); with Malme-3M, > 10 µM (inactive); in the experiment on NCI-H226, > 100 µM (inactive); in the experiment on NCI-H23, > 100 µM (inactive); in the experiment on NCI-H460 it was > 100 µM (inactive); in the experiment with NCI/ADR-RES, > 100 µM (inactive). Also, the GI50 in the experiment with PC-3 was > 100 µM (inactive); in the experiment on SF-539, 85.3 µM (inactive); in the experiment on SK-MEL-2 it was > 100 µM (inactive); in the experiment on SK-MEL-5 it was > 100 µM (inactive); with UACC-62 it was > 100 µM (inactive).

On to `CCc1nnc(CC)n1NCCCC(=O)O`, for which the GI50 is > 100 µM (inactive) in the experiment with BT-549; > 100 µM (inactive) in the experiment with CCRF-CEM; > 100 µM in the experiment with HCT-15; > 100 µM (inactive) in the experiment with HOP-62; > 100 µM (inactive) in the experiment on MCF7; > 100 µM (inactive) with MDA-N. The GI50 in the experiment with MOLT-4, in the experiment on NCI-H23, in the experiment with NCI/ADR-RES, with PC-3, with RXF 393 and with SF-539 was > 100 µM (inactive) in each case. In addition, the GI50 in the experiment on SK-MEL-2, in the experiment on SK-MEL-5 and with UACC-62 was > 100 µM (inactive) each time.

Consider `Nc1c(C(=O)c2ccc(Cl)cc2)[nH]c(Nc2ccc(Cl)cc2)c1C(=S)Nc1ccccc1`, for which the GI50 with BT-549 is 2.93 µM (inactive); in the experiment with CCRF-CEM, 6.27 µM (inactive); with HCT-15, 4.01 µM; with HOP-62 it was 5.65 µM (inactive); with MCF7, 4.41 µM (inactive); in the experiment on MDA-N, 6.76 µM (inactive). The GI50 with MOLT-4 was 9.44 µM (inactive); in the experiment with Malme-3M it was 8.34 µM (inactive); with NCI-H226 it was 3.64 µM (inactive); in the experiment on NCI-H23, 3.3 µM (inactive); in the experiment with NCI-H460, 6.58 µM (inactive); in the experiment on NCI/ADR-RES, 2.53 µM (inactive). The GI50 in the experiment with PC-3 was 10.6 µM (inactive); in the experiment with RXF 393, 2.7 µM (inactive); in the experiment on SF-539, 5.41 µM (inactive); in the experiment on SK-MEL-2, 11.7 µM (inactive); in the experiment with UACC-62, 13.4 µM (inactive).

With `O=C(O)C1CC2C3CCC2C1C3=O` (stereo not drawn), the GI50 is > 100 µM (inactive) with CCRF-CEM; > 100 µM with HCT-15; > 100 µM (inactive) in the experiment with HOP-62; > 100 µM (inactive) in the experiment with Hs-578T; > 100 µM (inactive) in the experiment with MCF7; > 100 µM (inactive) with MDA-N. Besides, the GI50 with MOLT-4, with Malme-3M, with NCI-H226, with NCI-H23, in the experiment with NCI-H460 and in the experiment on NCI/ADR-RES was > 100 µM (inactive) in each case. In addition, the GI50 in the experiment on PC-3, in the experiment with RXF 393, in the experiment on SF-539, in the experiment on SK-MEL-2, in the experiment with SK-MEL-5 and with UACC-62 was > 100 µM (inactive) each time.

Consider `O=C1OC[C@@H]2Cc3c([nH]c4ccccc34)[C@@H](c3ccc(O)cc3)N12`, for which the GI50 in the experiment on CCRF-CEM is 30.1 µM (inactive); in the experiment on HCT-15, 37.8 µM; in the experiment with HOP-62, 35.6 µM (inactive); with Hs-578T, 88.3 µM (inactive); in the experiment on MCF7, 36.6 µM (inactive); in the experiment on MDA-N, 33 µM (inactive). In addition, the GI50 in the experiment on MOLT-4 is 31.3 µM (inactive); in the experiment on Malme-3M, 27.2 µM (inactive); in the experiment on NCI-H226, 29 µM (inactive); in the experiment with NCI-H23 it was 19.3 µM (inactive); with NCI-H460 it was 28.7 µM (inactive); with NCI/ADR-RES, 34.7 µM (inactive). For the same compound, the GI50 was 24 µM (inactive) with PC-3; 17.3 µM (inactive) with RXF 393; 24.4 µM (inactive) in the experiment with SF-539; 22 µM (inactive) in the experiment on SK-MEL-2; 17.2 µM (inactive) in the experiment on SK-MEL-5; 29.9 µM (inactive) with UACC-62.

Consider `COC(=O)[C@]12CC[C@H]3CN(C(=O)OCc4ccccc4)[C@H]([C@H]31)[C@H](c1ccco1)N2`, for which the GI50 with CCRF-CEM is 33.4 µM (inactive); in the experiment on HCT-15, 23.9 µM; with HOP-62, 90.2 µM (inactive); in the experiment on Hs-578T, 42.4 µM (inactive); in the experiment on MCF7 it was 42.3 µM (inactive); in the experiment on MDA-N, 30.8 µM (inactive). Moreover, the GI50 was 19.8 µM (inactive) in the experiment with MOLT-4; 23.3 µM (inactive) in the experiment with Malme-3M; 69.7 µM (inactive) in the experiment on NCI-H226; 17.3 µM (inactive) in the experiment on NCI-H23; 45.6 µM (inactive) in the experiment on NCI-H460; 18.1 µM (inactive) in the experiment with NCI/ADR-RES. The GI50 with PC-3 is 33.2 µM (inactive); in the experiment on RXF 393 it was > 100 µM (inactive); in the experiment on SF-539, > 100 µM (inactive); in the experiment on SK-MEL-2 it was 55.1 µM (inactive); in the experiment on SK-MEL-5 it was 17 µM (inactive); with UACC-62 it was 23.7 µM (inactive).

The values are drawn from ChEMBL document CHEMBL1201862, “PubChem BioAssay data set” (2004).
